According to publication PMC7465190, “Inhibition of Tyrosyl-DNA Phosphodiesterase 1 by Lipophilic Pyrimidine Nucleosides” (Molecules, 2020):
“Also recorded” adds a separate entry of the source.

Tests used:
HeLa cells [1] = assay: Cytotoxicity in combination with topotecan, EZ4U assay; assay type: cell-based; conditions: for change of cytotoxicity of the compound in the presence of topotecan (synergy): compound 1, 5, 20, 100 μM with 2 μM topotecan, Figure 2; for sensitizing effect on cytotoxicity of topotecan: Figure 3
Method: To study the influence of the inhibitors on the cytotoxic effect of topotecan, the latter from the manufacturer ACTAVIS GROUP PTC ehf. was used. To select a nontoxic but effective concentration of the nucleoside compounds, we investigated their cytotoxicity in the presence of 2 μM topotecan (concentration causing the death of half the HeLa cells). Three independent cytotoxicity assays were performed with each inhibitor in combination with topotecan. For the cells treated with a nucleoside derivative alone, values in the control wells treated with 1% DMSO were set to 100% viability. For the cells treated with a combination of the drugs, the viability of cells treated only with topotecan was set to 100%.
(§1) Intrinsic toxicity of the compounds to human cell line HeLa (cervical cancer) was examined by means of the EZ4U Cell Proliferation and Cytotoxicity Assay (Biomedica, Wien, Austria), according to the manufacturer’s protocols. The cells were grown in Iscove’s modified Dulbecco’s medium (IMDM) with 40 μg/mL gentamicin, 50 IU/mL penicillin, 50 μg/mL streptomycin (MP Biomedicals), and 10% of fetal bovine serum (Biolot) in a 5% CO2 atmosphere. After formation of a 30–50%-confluent monolayer, one of the tested compounds was added to the medium (the volume of the added reagents was 1/100 of the total volume of the culture medium, and the amount of DMSO was 1% of the final volume), and the cell culture was monitored for 3 days. Control cells were grown in the presence of 1% DMSO. To assess the influence of the inhibitors on the cytotoxic effect of topotecan, the latter from the manufacturer ACTAVIS GROUP PTC ehf. (Bucharest, Romania) was used. First of all, 50% cytotoxic concentrations of topotecan and of each inhibitor were determined to attain a defined single-agent effect. Second, three independent tests were performed with each inhibitor in combination with topotecan.

Tdp1 = Tdp1 (Homo sapiens, UniProt Q9NUW8); assay: Real-time detection of Tdp1 activity (fluorophore-quencher oligonucleotide biosensor); assay type: biochemical; conditions: 1.5 nM purified Tdp1, 50 nM biosensor, 26 °C, three independent experiments; read-out: IC50 (inhibition of Tdp-1)
Sequence of Tdp1 (Q9NUW8 whole entry): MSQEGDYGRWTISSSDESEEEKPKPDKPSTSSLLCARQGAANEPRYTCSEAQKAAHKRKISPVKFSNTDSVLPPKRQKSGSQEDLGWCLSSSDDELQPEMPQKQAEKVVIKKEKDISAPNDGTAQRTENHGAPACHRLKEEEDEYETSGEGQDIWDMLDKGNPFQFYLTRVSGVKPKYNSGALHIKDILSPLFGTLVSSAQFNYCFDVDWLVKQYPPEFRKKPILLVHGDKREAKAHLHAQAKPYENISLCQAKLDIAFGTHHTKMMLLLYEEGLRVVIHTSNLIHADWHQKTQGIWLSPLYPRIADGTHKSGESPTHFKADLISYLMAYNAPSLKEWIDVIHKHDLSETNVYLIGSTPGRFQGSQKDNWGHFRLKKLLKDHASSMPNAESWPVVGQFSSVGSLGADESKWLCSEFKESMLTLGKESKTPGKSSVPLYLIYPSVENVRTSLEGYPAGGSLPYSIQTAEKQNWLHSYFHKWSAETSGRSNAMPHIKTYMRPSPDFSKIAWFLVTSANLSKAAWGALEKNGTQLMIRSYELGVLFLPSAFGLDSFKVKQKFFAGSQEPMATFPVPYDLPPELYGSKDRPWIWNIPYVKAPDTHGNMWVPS
Description: Previously, we designed a real-time oligonucleotide biosensor based on the capability of Tdp1 to remove fluorophore quenchers from the 3′ end of DNA [27]. The single-stranded substrate was a 16-mer oligonucleotide containing both a 5′-FAM fluorophore donor and a quenching 3′-BHQ moiety. When the quencher is removed by Tdp1, FAM fluorescence flares up and can be detected by a fluorimeter. Fluorescence intensity diminishes in the presence of an inhibitor; curves of the obtained Tdp1 activity versus inhibitor concentration can be used to calculate IC50 values. We also investigated some structurally related compounds obtained by previously developed methods; these compounds feature a modification either in a carbohydrate or heterocyclic moiety (Table 1).
This procedure was reported in our previous work. The approach consists of fluorescence intensity measurement in a reaction of quencher removal from a fluorophore quencher–coupled DNA oligonucleotide catalyzed by Tdp1 in the presence of an inhibitor (the control samples contained 1% of DMSO). The reaction mixtures (200 μL) contained Tdp1 buffer (50 mM Tris-HCl pH 8.0, 50 mM NaCl, and 7 mM β-mercaptoethanol), 50 nM biosensor, an inhibitor being tested, and purified Tdp1 (1.5 nM). The biosensor was a single-stranded oligonucleotide (5′-[FAM] AAC GTC AGGGTC TTC C [BHQ]-3′) containing a fluorophore at the 5′ end (5,6-FAM) and Black Hole Quencher 1 (BHQ) at the 3′ end and was synthesized in the Laboratory of Biomedical Chemistry at the Institute of Chemical Biology and Fundamental Medicine (Novosibirsk, Russia).
The reactions were incubated at a constant temperature of 26 °C on a POLARstar OPTIMA fluorimeter (BMG LABTECH, GmbH, Ortenberg, Germany) to measure fluorescence every 55 s (ex. 485/em. 520 nm) during the linear phase (here, data from minute 0 to minute 8). The values of IC50 were determined using a six-point concentration response curve in three independent experiments and were calculated using MARS Data Analysis 2.0 (BMG LABTECH).

[2] = Intrinsic cytotoxicity, EZ4U Cell Proliferation and Cytotoxicity Assay; assay type: cell-based, human; conditions: human, HeLa cells (cervical cancer), 3 days, EZ4U assay
Method: (§2) First, we assessed the toxicity of the compounds to HeLa cells (cervical cancer cells). Analysis of the intrinsic cytotoxicity of the compounds was examined in the EZ4U Cell Proliferation and Cytotoxicity Assay (Biomedica, Austria). The tested compounds were added to the medium (the volume of added reagents was 1/100 of the total volume of the culture medium, and the amount of DMSO (dimethyl sulfoxide) was 1% of the final volume), and the cell culture was monitored for 3 days. Control cells were grown in the presence of 1% DMSO. Intrinsic cytotoxicity of the compounds was either absent or negligible at concentrations up to 100 μM (>80% live cells) with the exception of compounds 2b, 2c, and 7, in the presence of which, at a concentration of 100 μM, 30–45% of the cells died (Table 1 and Figure 1).
as §1

HeLa cells [3] = assay: as above; assay type: cell-based, human; conditions: for cells died: compound at 100 μM, 3 days
Method: as §2, §1

[4] = compound at 20 μM, various doses of topotecan

With `O=C(OC[C@H]1O[C@@H](n2cc(Br)c(=O)[nH]c2=O)[C@H](OC(=O)c2ccccc2)[C@@H]1OC(=O)c1ccccc1)c1ccccc1` [Compound 2c, 2′,3′,5′-Tri-O-benzoyl-5-bromouridine] the “change of cytotoxicity of the compound in the presence of topotecan (synergy)” value (“change of cytotoxicity of the compound” for short) (HeLa cells [1]) was “Inactive”, the IC50 (Tdp1) was 1.5 ± 0.9 µM and the CC50 at 3 days [2] was over 100 µM. For the same compound, the cells died (HeLa cells [3]) was 30–45%.
`CC(=O)O[C@@H]1O[C@H](COC(=O)c2ccccc2)[C@@H](OC(=O)c2ccccc2)[C@H]1OC(=O)c1ccccc1` [Compound 9, 1-O-acetyl-2,3,5-tri-O-Bz-β-D-Rib] showed an IC50 (Tdp1) of 4.2 ± 0.3 µM.
For `COc1ccn([C@@H]2O[C@H](COC(=O)c3ccccc3)[C@@H](OC(=O)c3ccccc3)[C@H]2OC(=O)c2ccccc2)c(=O)n1` [Compound 7, 2′,3′,5′-Tri-O-benzoyl-2-oxo-4-metoxypyrimidine], the “change of cytotoxicity of the compound” value (HeLa cells [1]) was “significantly (p = 0.05, Mann–Whitney U test) enhanced; also recorded: synergistic effect with topotecan; also recorded: enhanced the cytotoxicity”, the “sensitizing effect on cytotoxicity of topotecan” value (“sensitizing effect” for short) (HeLa cells [1]; [4]) was “doubled the cytotoxicity of topotecan; also recorded: doubling topotecan’s activity” and the IC50 (Tdp1) was 2.91 ± 0.01 µM. For the same compound, the CC50 at 3 days [2] was over 100 µM and the cells died (HeLa cells [3]) was 30–45%.
In the case of `O=C(OC[C@H]1O[C@@H](n2cc(I)c(=O)[nH]c2=O)[C@H](OC(=O)c2ccccc2)[C@@H]1OC(=O)c1ccccc1)c1ccccc1` [Compound 2d, 2′,3′,5′-tri-O-benzoyl-5-iodouridine], the “change of cytotoxicity of the compound” value (HeLa cells [1]) is reported as “Inactive”, the IC50 (Tdp1) is reported as 0.6 ± 0.9 µM and the CC50 at 3 days [2] is reported as over 100 µM.
`CC[C@@]1(O)C(=O)OCc2c1cc1n(c2=O)Cc2cc3c(CN(C)C)c(O)ccc3nc2-1` [topotecan, reference compound] gave an IC50 (HeLa cells [3]; Homo sapiens, EZ4U assay, read-out: concentration causing the death of half the HeLa cells) of 2 µM.
With `O=c1[nH]c(=O)n([C@@H]2O[C@H](CO)[C@@H](O)[C@H]2O)cc1I` [Compound 1d, 5-Iodouridine, reference compound] the IC50 (Tdp1) was over 50 µM.
In the case of `O=C(OC[C@H]1O[C@@H](n2ccc(=O)nc2)[C@H](OC(=O)c2ccccc2)[C@@H]1OC(=O)c1ccccc1)c1ccccc1` [Compound 5, 1-(2′,3′,5′-Tri-O-benzoyl-β-D-ribofuranosyl)-4-pyrimidone], the “change of cytotoxicity of the compound” value (HeLa cells [1]) is reported as “significant only at the maximum concentration, 100 μM; also recorded: at a concentration of 20 μM, no synergy with topotecan was observed; also recorded: enhanced the cytotoxicity”, the “sensitizing effect” value (HeLa cells [1]; compound at 50 μM, various doses of topotecan (significant at 10 μM)) is reported as “weak sensitizing effect” and the IC50 (Tdp1) is reported as 18 ± 1 µM.
`O=C(OC[C@H]1O[C@@H](n2ccc(=O)[nH]c2=O)[C@H](O)[C@@H]1O)c1ccccc1` [Compound 3a, 5′-O-benzoyluridine] gave an IC50 (Tdp1) of over 100 µM.
`Cc1cn([C@@H]2O[C@H](CO)[C@@H](O)[C@H]2O)c(=O)[nH]c1=O` [Compound 1e, 5-Methyluridine (Ribothymidine), reference compound] gave an IC50 (Tdp1) of over 50 µM.
In the case of `O=C(OC[C@H]1O[C@@H](n2ccc(=O)[nH]c2=O)[C@H](OC(=O)c2ccccc2)[C@@H]1OC(=O)c1ccccc1)c1ccccc1` [Compound 2a, 2′,3′,5′-tri-O-benzoyluridine], the “change of cytotoxicity of the compound” value (HeLa cells [1]) is reported as “Inactive” and the IC50 (Tdp1) is reported as 6.3 ± 0.4 µM.
Work on `O=c1[nH]c(=O)n([C@@H]2O[C@H](CO)[C@@H](O)[C@H]2O)cc1Br` [Compound 1c, 5-bromouridine, reference compound] yielded an IC50 (Tdp1) of over 50 µM.
In the case of `Cc1cc(=O)[nH]c(=O)n1[C@@H]1O[C@H](COC(=O)c2ccccc2)[C@@H](OC(=O)c2ccccc2)[C@H]1OC(=O)c1ccccc1` [Compound 2g, 2′,3′,5′-Tri-O-benzoyl-6-methyluridine], the “change of cytotoxicity of the compound” value (HeLa cells [1]) is reported as “significantly (p = 0.05, Mann–Whitney U test) enhanced; also recorded: synergistic effect with topotecan; also recorded: enhanced the cytotoxicity”, the “sensitizing effect” value (HeLa cells [1]; [4]) is reported as “doubled the cytotoxicity of topotecan; also recorded: doubling topotecan’s activity” and the IC50 (Tdp1) is reported as 3.4 ± 0.2 µM. The CC50 at 3 days [2] was over 100 µM.
With `O=C(OC[C@H]1O[C@@H](n2cccnc2=O)[C@H](OC(=O)c2ccccc2)[C@@H]1OC(=O)c1ccccc1)c1ccccc1` [Compound 6, 1-(2′,3′,5′-Tri-O-benzoyl-β-D-ribofuranosyl)-2-pyrimidone] the “change of cytotoxicity of the compound” value (HeLa cells [1]) was “statistically insignificant”, the IC50 (Tdp1) was 6 ± 0.7 µM and the CC50 at 3 days [2] was over 100 µM.
For `Cc1cn([C@@H]2O[C@H](COC(=O)c3ccccc3)[C@@H](OC(=O)c3ccccc3)[C@H]2OC(=O)c2ccccc2)c(=O)[nH]c1=O` [Compound 2e, 2′,3′,5′-Tri-O-benzoyl-5-methyluridine], the “change of cytotoxicity of the compound” value (HeLa cells [1]) was “Inactive”, the IC50 (Tdp1) was 2.7 ± 0.6 µM and the CC50 at 3 days [2] was over 100 µM.
`O=C(O[C@@H]1[C@H](OC(=O)c2ccccc2)[C@@H](CO)O[C@H]1n1ccc(=O)[nH]c1=O)c1ccccc1` [Compound 4a, 2′,3′-di-O-benzoyluridine] gave an IC50 (Tdp1) of 23 ± 6 µM and a CC50 at 3 days [2] of over 100 µM.
For `Nc1ccn([C@@H]2O[C@H](COC(=O)c3ccccc3)[C@@H](OC(=O)c3ccccc3)[C@H]2OC(=O)c2ccccc2)c(=O)n1` [Compound 8, 2′,3′,5′-tri-O-benzoylcytidine], the “change of cytotoxicity of the compound” value (HeLa cells [1]) was “significantly (p = 0.05, Mann–Whitney U test) enhanced; also recorded: synergistic effect with topotecan; also recorded: enhanced the cytotoxicity”, the “sensitizing effect” value (HeLa cells [1]; [4]) was “doubled the cytotoxicity of topotecan; also recorded: doubling topotecan’s activity” and the IC50 (Tdp1) was 4.3 ± 0.7 µM. It also gave a CC50 at 3 days [2] of over 100 µM.
For `O=C(OCC1OC(n2cc(F)c(=O)[nH]c2=O)C(OC(=O)c2ccccc2)C1OC(=O)c1ccccc1)c1ccccc1` (stereo not shown) [Compound 2b, 2′,3′,5′-Tri-O-benzoyl-5-fluorouridine], the “change of cytotoxicity of the compound” value (HeLa cells [1]) was “Inactive”, the IC50 (Tdp1) was 8.5 ± 1.4 µM and the CC50 at 3 days [2] was over 100 µM. The cells died (HeLa cells [3]) was 30–45%.
For `O=c1[nH]c(=O)n([C@@H]2O[C@H](CO)[C@@H](O)[C@H]2O)cc1Cl` [Compound 1f, 5-Chlorouridine, reference compound], the IC50 (Tdp1) was over 50 µM.
Work on `O=c1[nH]c(=O)n([C@@H]2O[C@H](CO)[C@@H](O)[C@H]2O)cc1F` [Compound 1b, 5-Fluorouridine, reference compound] yielded an IC50 (Tdp1) of over 50 µM.
In the case of `O=c1ccn([C@@H]2O[C@H](CO)[C@@H](O)[C@H]2O)c(=O)[nH]1` [Compound 1a, Uridine, reference compound], the IC50 (Tdp1) is reported as over 50 µM.
With `O=C(OCC1OC(n2cc(Cl)c(=O)[nH]c2=O)C(OC(=O)c2ccccc2)C1OC(=O)c1ccccc1)c1ccccc1` (stereo not shown) [Compound 2f, 2′,3′,5′-Tri-O-benzoyl-5-chlorouridine] the “change of cytotoxicity of the compound” value (HeLa cells [1]) was “Inactive”, the IC50 (Tdp1) was 3.6 ± 1.1 µM and the CC50 at 3 days [2] was over 100 µM.
